How the values were obtained:
EGFR kinase = EGFR kinase (Homo sapiens, UniProt P00533); test: Enzymatic experiment on EGFR (HTRF kinEASE-TK); assay type: biochemical; details: ATP 1.65 μM; read-out: Kinase IC50 (nM) in vitro EGFR
Method: (§1) Enzymatic Experiment on EGFR/ErbB2
(§2) Firstly, preparing 1× reaction buffer required for the kinase, 5× Enzymatic buffer (HEPES 20 mM pH7.0, NaN3 0.1%, BSA 0.05%, sodium orthovanadate 0.5 mM) in the HTRF kinEASE-TK kit was diluted to 1 time with deionized water, 50 nM Supplement Enzymatic buffer (SEB reagent), 1 mM MnCl2, 5 mM MgCl2 and 1 mM DTT were added. Secondly, preparing 5× compound, 10 mM test compound stock solution was diluted in multiple steps with DMSO in a 96-well compound plate to prepare 100× compound as initial concentration, which was then used as the first concentration to perform a 3-fold gradient dilution with DMSO to obtain 10 concentrations. Afterwards, 1 μl gradient dilution was added to 19 μl 1× reaction buffer to prepare 5× compound for use. Then 2 μl 5× compound was transferred from the 96 well plate into a 384-well plate. To the compound-free control wells was added with 2 μl the following liquid: 19 μl 1× reaction buffer with addition of 1 μl DMSO. To the blank control wells was added 2 μl 250 mM EDTA. The third step was enzymatic reaction, the kinase, substrate (TK Substrate-biotin) and ATP were formulated into 2.5× enzyme/substrate mixture and 2.5×ATP solution using 1× reaction buffer respectively. The final concentration of ErbB2 kinase was 0.06 ng/μl, the final concentration of ATP was 4 μM; the final concentration of EGFR kinase was 0.06 units/μl, the final concentration of ATP was 1.65 μM; 4 μl 2.5× enzyme/substrate mixture was added to a 384-well plate, which was incubated at room temperature for 5 minutes; 4 μl 2.5×ATP solution was added to each well and the mixture was allowed to react for 30 minutes at room temperature. The fourth step was termination of the reaction, HTRF Detection buffer was used to prepare a mixture of 2×TK Antibody-Eu(K) and Sa-XL665, the amount of TK Antibody-Eu(K) was 5 μl per well. After the enzymatic reaction was performed for 30 minutes, 10 μl of the above liquid was added to the 384-well plate and the mixture was allowed to react at room temperature for 1 hour. The data was measured on EnVision™, the laser of 337 nm wavelength was selected as the excitation light, RFU665 nM and RFU620 nM were measured, and […]/RFU620 nM×10000 was used as the final data for analysis.

ErbB2 kinase = ErbB2 kinase (Homo sapiens, UniProt P04626); test: Enzymatic experiment on ErbB2 (HTRF kinEASE-TK); assay type: biochemical; details: ATP 4 μM; read-out: Kinase IC50 (nM) in vitro ErbB2
Method: as §1, §2

ErbB2 kinase, sequence (P04626 23-1255): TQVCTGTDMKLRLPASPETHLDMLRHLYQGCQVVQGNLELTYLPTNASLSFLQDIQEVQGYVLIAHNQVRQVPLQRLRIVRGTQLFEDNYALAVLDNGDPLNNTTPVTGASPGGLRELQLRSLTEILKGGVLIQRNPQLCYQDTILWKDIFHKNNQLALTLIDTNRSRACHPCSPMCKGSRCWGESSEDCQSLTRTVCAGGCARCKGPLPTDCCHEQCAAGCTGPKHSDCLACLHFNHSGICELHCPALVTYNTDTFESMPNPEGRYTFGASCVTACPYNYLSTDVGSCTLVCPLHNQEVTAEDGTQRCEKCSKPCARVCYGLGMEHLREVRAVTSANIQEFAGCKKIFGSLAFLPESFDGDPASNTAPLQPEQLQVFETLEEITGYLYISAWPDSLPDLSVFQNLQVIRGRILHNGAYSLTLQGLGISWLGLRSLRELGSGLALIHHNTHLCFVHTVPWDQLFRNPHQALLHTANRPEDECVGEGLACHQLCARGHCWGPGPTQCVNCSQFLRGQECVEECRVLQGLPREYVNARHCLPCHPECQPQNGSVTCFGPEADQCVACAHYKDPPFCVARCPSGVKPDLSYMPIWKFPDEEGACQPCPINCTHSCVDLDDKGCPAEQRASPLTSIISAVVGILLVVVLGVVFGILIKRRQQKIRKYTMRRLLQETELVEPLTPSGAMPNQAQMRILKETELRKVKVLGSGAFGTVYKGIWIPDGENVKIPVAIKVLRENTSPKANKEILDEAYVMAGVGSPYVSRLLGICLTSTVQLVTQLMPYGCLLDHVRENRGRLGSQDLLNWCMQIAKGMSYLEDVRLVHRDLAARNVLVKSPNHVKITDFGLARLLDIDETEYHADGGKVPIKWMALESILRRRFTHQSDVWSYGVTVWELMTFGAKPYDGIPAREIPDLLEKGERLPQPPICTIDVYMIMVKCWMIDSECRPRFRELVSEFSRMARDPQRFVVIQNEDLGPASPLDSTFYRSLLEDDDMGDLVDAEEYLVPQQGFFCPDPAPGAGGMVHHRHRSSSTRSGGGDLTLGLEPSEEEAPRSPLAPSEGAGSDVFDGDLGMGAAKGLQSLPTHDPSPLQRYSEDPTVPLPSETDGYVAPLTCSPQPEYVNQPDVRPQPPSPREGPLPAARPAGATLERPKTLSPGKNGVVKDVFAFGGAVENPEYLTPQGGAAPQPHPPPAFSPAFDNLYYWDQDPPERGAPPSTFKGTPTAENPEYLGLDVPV
EGFR kinase, sequence (P00533 25-1210): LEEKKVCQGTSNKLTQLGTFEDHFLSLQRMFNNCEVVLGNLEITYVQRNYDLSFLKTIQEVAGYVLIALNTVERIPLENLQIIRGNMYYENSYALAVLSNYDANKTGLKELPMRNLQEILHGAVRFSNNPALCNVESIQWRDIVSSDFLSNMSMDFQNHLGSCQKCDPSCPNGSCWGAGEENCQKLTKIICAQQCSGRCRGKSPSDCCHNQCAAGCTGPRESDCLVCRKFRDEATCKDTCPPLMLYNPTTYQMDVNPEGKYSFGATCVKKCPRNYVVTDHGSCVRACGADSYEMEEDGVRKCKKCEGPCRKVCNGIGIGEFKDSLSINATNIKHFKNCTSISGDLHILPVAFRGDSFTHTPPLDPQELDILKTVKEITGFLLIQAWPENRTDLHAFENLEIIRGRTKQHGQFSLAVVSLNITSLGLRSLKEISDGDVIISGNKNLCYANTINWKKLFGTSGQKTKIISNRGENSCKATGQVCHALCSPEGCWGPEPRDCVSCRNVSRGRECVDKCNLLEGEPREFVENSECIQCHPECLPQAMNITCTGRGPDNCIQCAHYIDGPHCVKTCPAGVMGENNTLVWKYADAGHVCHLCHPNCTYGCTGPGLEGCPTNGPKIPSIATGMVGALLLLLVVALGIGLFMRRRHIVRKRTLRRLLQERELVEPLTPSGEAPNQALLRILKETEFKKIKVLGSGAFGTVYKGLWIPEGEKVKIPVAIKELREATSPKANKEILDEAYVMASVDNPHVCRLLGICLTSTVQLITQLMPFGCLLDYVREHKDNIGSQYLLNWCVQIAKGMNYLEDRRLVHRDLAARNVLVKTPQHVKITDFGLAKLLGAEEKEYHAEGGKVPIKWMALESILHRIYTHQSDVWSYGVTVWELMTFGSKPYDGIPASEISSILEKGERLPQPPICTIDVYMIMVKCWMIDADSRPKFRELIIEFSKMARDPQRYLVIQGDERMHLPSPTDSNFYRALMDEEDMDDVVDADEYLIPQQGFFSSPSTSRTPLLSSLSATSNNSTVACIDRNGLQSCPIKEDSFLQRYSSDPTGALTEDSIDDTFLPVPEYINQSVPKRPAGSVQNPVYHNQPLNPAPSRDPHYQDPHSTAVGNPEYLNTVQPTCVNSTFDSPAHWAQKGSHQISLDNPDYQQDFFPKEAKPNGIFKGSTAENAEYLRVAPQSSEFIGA

IC50 (EGFR kinase) [nM] | IC50 (ErbB2 kinase) [nM] | Compound
82.7 | 22.1 | Cc1cc(Nc2ncnc3ccc(/C=C/C(=O)NOCCO)cc23)ccc1Oc1cc2nncn2cn1
557 | 935 | Cc1cc(Nc2ncnc3ccc(NC4=NC(C)(C)CO4)cc23)ccc1Oc1ccc2nncn2n1 [reference compound]
11.4 | 4.5 | Cc1cc(Nc2ncnc3ccc(NC4=NC(C)(C)CO4)cc23)ccc1Oc1ncn2cnnc2c1O [Embodiment 102, 7-(4-((6-((4,4-dimethyl-4,5-dihydrooxazol-2-yl)amino)quinazolin-4-yl)amino)-2-methylphenoxy)-[1,2,4]triazolo[4,3-c]pyrimidin-8-ol]
623 | 24.5 | C=CC(=O)N1CCC2(CC1)CN=C(Nc1ccc3ncnc(Nc4ccc(Oc5cc6nncn6cn5)c(C)c4)c3c1)O2 [Embodiment 114, 1-(2-((4-((4-([1,2,4]triazolo[4,3-c]pyrimidin-7-yloxy)-3-methylphenyl)amino)quinazolin-6-yl)amino)-1-oxa-3,8-diazaspiro[4,5]dec-2-en-8-yl)-2-acrylamide]
167 | 8.5 | CC1(C)COC(Nc2ccc3ncnc(Nc4ccc(Oc5cc6nncn6cn5)c(CO)c4)c3c2)=N1 [Embodiment 89, N^4-(3-hydroxymethyl-4-([1,2,4]triazolo[4,3-c]pyrimidin-7-yloxy)phenyl)-N^6-(4,4-dimethyl-4,5-dihydrooxazol-2-yl)quinazolin-4,6-diamine]
1890 | 24.8 | Cc1cc(Nc2ncnc3ccc(NC(=O)N4CCOCC4)cc23)ccc1Oc1cc2nncn2cn1 [Embodiment 6]
170 | 9.4 | Cc1cc(Nc2ncnc3ccc(NC(=S)NCC(C)(C)O)cc23)ccc1Oc1cc2nncn2cn1 [Embodiment 113, 1-(4-((4-([1,2,4]triazolo[4,3-c]pyrimidin-7-yloxy)-3-methylphenyl)amino)quinazolin-6-yl)-3-(2-hydroxy-2-methylpropyl)thiourea]
20 | 1.8 | Cc1cc(Nc2ncnc3ccc(NC(=O)c4cnoc4C)cc23)ccc1Oc1cc2nncn2cn1 [Embodiment 39, N-(4-((4-([1,2,4]triazolo[4,3-c]pyrimidin-7-yloxy)-3-methylphenyl)amino)quinazoline-6-yl)-5-methylisoxazole-4-carboxamide]
12.7 | 6.9 | COc1cc2ncnc(Nc3ccc(Oc4cc5nncn5cn4)c(C)c3)c2cc1OC1CCNCC1 [Embodiment 40, N-(4-([1,2,4]triazolo[4,3-c]pyrimidin-7-yloxy)-3-methylphenyl)-7-methoxy-6-(piperidin-4-yloxy)quinazolin-4-amine]
82.7 | 49.4 | Cc1cc(Nc2ncnc3ccc(NC4=NC(C)(C)CO4)cc23)ccc1Oc1ccn2nccc2n1 [reference compound]
> 3330 | 58.1 | Cc1cc(Nc2ncnc3ccc(NC(=S)NC(C)(C)CNC(=O)OC(C)(C)C)cc23)ccc1Oc1cc2nncn2cn1 [Embodiment 11, tert-butyl (2-(3-(4-((4-([1,2,4]triazolo[4,3-c]pyrimidin-7-yloxy)-3-methylphenyl)amino)quinazolin-6-yl)thioureido)-2-methylpropyl)carbamate]
79.5 | 13.2 | Cc1cc(Nc2ncnc3ccc(NC(=S)NCC(C)(C)N)cc23)ccc1Oc1cc2nncn2cn1 [Embodiment 18, 1-(4-((4-([1,2,4]triazolo[4,3-c]pyrimidin-7-yloxy)-3-methylphenyl)amino)quinazolin-6-yl)-3-(2-amino-2-methylpropyl)thiourea]
92.7 | 7 | Cc1cc(Nc2ncnc3ccc(NC(=O)Nc4cc(C)n(C(=O)OC(C)(C)C)n4)cc23)ccc1Oc1cc2nncn2cn1 [Embodiment 69, tert-butyl 3-(3-(4-((4-([1,2,4]triazolo[4,3-c]pyrimidin-7-yloxy)-3-methylphenyl)amino)quinazolin-6-yl)ureido)-5-methyl-1H-pyrazol-1-carbamate]
45.2 | 4.8 | Cc1cc(Nc2ncnc3ccc(NC(=O)CC#N)cc23)ccc1Oc1cc2nncn2cn1 [Embodiment 37, N-(4-((4-([1,2,4]triazolo[4,3-c]pyrimidin-7-yloxy)-3-methylphenyl)amino)quinazoline-6-yl)-2-cyanoacetamide]
14.9 | 2.2 | Cc1cc(Nc2ncnc3ccc(NC(=O)/C(C#N)=C/C4CC4)cc23)ccc1Oc1cc2nncn2cn1 [Embodiment 85, (E)-N-(4-((4-([1,2,4]triazolo[4,3-c]pyrimidin-7-yloxy)-3-methylphenyl)amino)quinazolin-6-yl)-2-cyano-3-cyclopropylacrylamide]
69.7 | 9.26 | Cc1cc(Nc2ncnc3ccc(NC4=NCC(F)(F)CO4)cc23)ccc1Oc1cc2nncn2cn1 [Embodiment 43, N^4-(4-([1,2,4]triazolo[4,3-c]pyrimidin-7-yloxy)-3-methylphenyl)-N^6-(5,5-difluoro-5,6-dihydro-4H-1,3-oxazin-2-yl)quinazoline-4,6-diamine]
17.7 | 4.79 | Cc1cc(Nc2ncnc3ccc(NC4=NCC5(CCNCC5)O4)cc23)ccc1Oc1cc2nncn2cn1 [Embodiment 28, N^4-(4-([1,2,4]triazolo[4,3-c]pyrimidin-7-yloxy)-3-methylphenyl)-N^6-(1-oxa-3,8-diazaspiro[4.5]dec-2-en-2-yl)quinazoline-4,6-diamine]
230 | 16.7 | Cc1cc(Nc2ncnc3ccc(NC4=NC(C)(C)CO4)cc23)ccc1Oc1cc2ncnn2cn1 [Embodiment 2, N^4-(4-([1,2,4]triazolo[1,5-c]pyrimidin-7-yloxy)-3-methylphenyl)-N^6-(4,4-dimethyl-4,5-dihydrooxazol-2-yl)quinazoline-4,6-diamine]
40.6 | 4.3 | Cc1cc(Nc2ncnc3ccc(NC(=O)OC[C@@H]4COCCN4)cc23)ccc1Oc1cc2nncn2cn1 [Embodiment 20, morpholin-3-ylmethyl (S)-(4-((4-([1,2,4]triazolo[4,3-c]pyrimidin-7-yloxy)-3-methylphenyl)amino)quinazolin-6-yl)carbamate]
41.8 | 3.6 | C=CC(=O)N1CC2(COC(Nc3ccc4ncnc(Nc5ccc(Oc6cc7nncn7cn6)c(C)c5)c4c3)=N2)C1 [Embodiment 29, 1-(6-((4-((4-([1,2,4]triazolo[4,3-c]pyrimidin-7-yloxy)-3-methylphenyl)amino)quinazolin-6-yl)amino)-7-oxa-2,5-diazaspiro[3.4]oct-5-en-2-yl)prop-2-en-1-one]

— patent US10828305B2 (SHANGHAI PHARMACEUTICALS HOLDING CO., LTD., priority 2016, dated 2020)
